Test results as given in patent US11680946B1, “Detection of cholinesterase inhibition with microfluidic devices and systems thereof” (priority 2020, dated 2023).
“Also recorded” adds a separate entry of the source.

Key:
[1] = test system: acetylcholinesterase (AChE); experiment: standard Abcam fluorescent AChE assay in a microplate (plate reader); assay type: biochemical; conditions: human tears; microtiter plate format
From the text: In addition, we performed side-by-side measurements of a series of samples including the human sample matrices and recombinantly expressed AChE with the SpinDx assay and with a traditional assay including a microtiter plate and plate reader (FIG. 7A-7B). The two assay formats show similar trends in the levels of activity, although certain samples (e.g., unkilled CSF) look dramatically higher in SpinDx than in the plate format.

[2] = test system: acetylcholinesterase (AChE); experiment: SpinDx pulldown AChE activity assay in human sample matrices with or without inhibition by paraoxon; assay type: biochemical; conditions: pooled human tears, acetylthiocholine fluorogenic substrate
From the text: For this reason, we developed a SpinDx-based assay to provide information on (non-specific) inhibition of cholinesterase (ChE), such that the SpinDx test at a minimum provides information similar to that which can be obtained with the existing Test-mate ChE test, but in a simpler, more portable format. The term “SpinDx-based assay,” as used herein, refers to a bead-based assay format that employs a centrifugal microfluidic disc for transporting such beads (e.g., as described in FIG. 1A-1B and FIG. 3A-3D).
Our SpinDx assay can include components for a fluorescent analog of the Ellman's assay, loaded within the density medium. Upon spinning the disk, the capture beads, but not the blood sample or erythrocytes, will partition into the density medium. […]
We tested the assay extensively in buffer prior to translating to human bodily fluids, using either heat or paraoxon to inhibit the AChE cholinesterase activity. We determined that, in buffer, our limit of detection (LOD) for AChE with the SpinDx assay was between 0.005 and 0.01 mU/mL, with a limit of quantitation (LOQ) of 0.015 to 0.024 mU/mL, depending on the time of incubation (shorter incubations actually gave lower limits of detection and quantitation, perhaps because the fluorogenic assay inherently has a slow signal generation over time due to spontaneous hydrolysis of the substrate). […]

SMILES: CCOP(=O)(OCC)Oc1ccc([N+](=O)[O-])cc1 [paraoxon]
- reduction (kill) of apparent AChE activity by inhibitor [1]: can't be killed
- reduction (kill) of cholinesterase activity by inhibitor [2]: could not be reduced; also recorded: can't be killed
